Each structure is given as a SMILES string.

The target in this assay is T1, humane Tyrosinase (Homo sapiens, UniProt P14679).
T1 sequence (P14679 19-529): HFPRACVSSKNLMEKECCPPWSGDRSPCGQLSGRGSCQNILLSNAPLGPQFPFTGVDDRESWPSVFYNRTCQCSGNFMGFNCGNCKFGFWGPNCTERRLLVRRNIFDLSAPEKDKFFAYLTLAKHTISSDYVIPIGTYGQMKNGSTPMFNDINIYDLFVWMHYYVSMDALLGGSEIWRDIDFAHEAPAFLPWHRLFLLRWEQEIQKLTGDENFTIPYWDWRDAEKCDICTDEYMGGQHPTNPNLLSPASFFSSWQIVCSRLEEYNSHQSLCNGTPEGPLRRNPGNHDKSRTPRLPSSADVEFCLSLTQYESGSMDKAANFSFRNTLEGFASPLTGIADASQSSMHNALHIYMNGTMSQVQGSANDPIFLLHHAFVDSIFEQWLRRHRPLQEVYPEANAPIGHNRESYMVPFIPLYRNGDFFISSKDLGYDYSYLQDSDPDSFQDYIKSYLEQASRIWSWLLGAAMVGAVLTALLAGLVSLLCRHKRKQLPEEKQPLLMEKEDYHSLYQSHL
Nature of the assay: Enzyme test: conversion of L-DOPA to L-Dopachinon by human tyrosinase, MBTH detection, absorption at 490 nm. Format: biochemical. Conditions: Konzentration 10 µg/mL; substrate L-DOPA. An excerpt: Die Wirksamkeit der Thiazole wurde mit einem Enzymtest belegt, in der Umsatz von L-DOPA zu L-Dopachinon durch eine humane Tyrosinase gemessen wurde. Bei dieser literaturbekannten Methode (Winder, A.J. and Harris, H., New assays for the tyrosine hydroxylase and dopa oxidase activities of tyrosinase. Eur. J. Blochem. (1991), 198, 317-26) wird das Reaktionsprodukt L-Dopaquinone mit MBTH (3-methyl-2-benzothiazoline hydrazone) zu einer pinkfarbenen Substanz umgesetzt, deren Zunahme über die Zeit durch Absorption bei 490 nm gemessen wird. In Tabelle ein sind Wirksamkeitsdaten für einige der beanspruchten Substanzen beispielhaft dargestellt. Daraus lässt sich schließen, dass die erfindungsgemäßen Substanzen äußerst effektive pigmentierungs-inhibierende Substanzen sind.
`CCN1CCN(c2nc(-c3ccc(O)cc3O)cs2)CC1` [4-(2-(4-Ethylpiperazin-1-yl)thiazol-4-yl)benzen-1,3-diol]: the “Inhibition (% der Kontrolle)” value was found to be 91 % der Kontrolle.
For the compound `Oc1ccc(-c2csc(N3CCNCC3)n2)c(O)c1` [4-(2-(Piperazin-1-yl)thiazol-4-yl)benzen-1,3-diol], the “Inhibition (% der Kontrolle)” value turned out to be 93 % der Kontrolle.
The same measure for `Oc1ccc(-c2csc(N3CCCCC3)n2)c(O)c1` [4-(2-(Piperidin-1-yl)thiazol-4-yl)benzen-1,3-diol]: 82 % der Kontrolle.
The same measure for `Oc1ccc(-c2csc(N3CCOCC3)n2)c(O)c1` [4-(2-Morpholinothiazol-4-yl)benzen-1,3-diol]: 91 % der Kontrolle; for `CCN1CCN(C(=O)Nc2nc(-c3ccc(O)cc3O)cs2)CC1` [N-(4-(2,4-dihydroxyphenyl)thiazol-2-yl)-4-ethylpiperazin-1-carboxamid]: 94 % der Kontrolle.
The value for `O=C(Nc1nc(-c2ccc(O)cc2O)cs1)N1CCOCC1` [N-(4-(2,4-dihydroxyphenyl)thiazol-2-yl)morpholin-4-carboxamid] was 97 % der Kontrolle; that for `O=C(Nc1nc(-c2ccc(O)cc2O)cs1)N1CCNCC1` [N-(4-(2,4-dihydroxyphenyl)thiazol-2-yl)piperazin-1-carboxamid] was 94 % der Kontrolle.
As for `O=C(Nc1nc(-c2ccc(O)cc2O)cs1)N1CCCCC1` [N-(4-(2,4-dihydroxyphenyl)thiazol-2-yl)piperidin-1-carboxamid], the “Inhibition (% der Kontrolle)” value came out at 97 % der Kontrolle.
